Legend:
Conditions in all cases: Compound concentration 3.0 uM
[1] = molecular target: Dual specificity protein kinase CLK3 (Homo sapiens) (UniProt P49761); assay: CLK3 Invitrogen selectivity data (BI)
[2] = molecular target: Calcium/calmodulin-dependent protein kinase type II subunit alpha (Homo sapiens) (UniProt Q9UQM7); assay: CAMK2A Invitrogen selectivity data (BI)
[3] = molecular target: Mitogen-activated protein kinase kinase kinase 10 (Homo sapiens) (UniProt Q02779); assay: MAP3K10 Invitrogen selectivity data (BI)
[4] = molecular target: T1, Tyrosine-protein kinase Tec (Homo sapiens) (UniProt P42680); assay: TEC Invitrogen selectivity data (BI)
T1 sequence (whole entry): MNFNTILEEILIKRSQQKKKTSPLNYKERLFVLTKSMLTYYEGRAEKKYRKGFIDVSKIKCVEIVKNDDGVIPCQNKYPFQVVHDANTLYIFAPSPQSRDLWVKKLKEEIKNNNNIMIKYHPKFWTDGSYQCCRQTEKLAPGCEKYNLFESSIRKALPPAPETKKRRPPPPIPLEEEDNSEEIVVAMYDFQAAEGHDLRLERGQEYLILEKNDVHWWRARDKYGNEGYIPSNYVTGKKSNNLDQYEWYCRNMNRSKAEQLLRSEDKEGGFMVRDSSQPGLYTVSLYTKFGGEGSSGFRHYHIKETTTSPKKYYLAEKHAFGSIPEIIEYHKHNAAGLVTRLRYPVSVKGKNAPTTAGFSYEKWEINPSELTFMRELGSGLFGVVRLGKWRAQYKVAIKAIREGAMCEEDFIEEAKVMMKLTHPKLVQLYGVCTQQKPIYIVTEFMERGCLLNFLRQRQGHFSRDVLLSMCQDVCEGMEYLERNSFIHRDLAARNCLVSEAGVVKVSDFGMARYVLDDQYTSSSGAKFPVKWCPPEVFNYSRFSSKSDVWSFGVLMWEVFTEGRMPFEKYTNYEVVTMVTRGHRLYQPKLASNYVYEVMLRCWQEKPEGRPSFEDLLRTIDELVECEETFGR

[5] = molecular target: Calcium/calmodulin-dependent protein kinase kinase 2 (Homo sapiens) (UniProt Q96RR4); assay: CAMKK2 Invitrogen selectivity data (BI)
[6] = molecular target: T2, Serine/threonine-protein kinase BRSK1 (Homo sapiens) (UniProt Q8TDC3); assay: BRSK1 Invitrogen selectivity data (BI)
T2 sequence (whole entry): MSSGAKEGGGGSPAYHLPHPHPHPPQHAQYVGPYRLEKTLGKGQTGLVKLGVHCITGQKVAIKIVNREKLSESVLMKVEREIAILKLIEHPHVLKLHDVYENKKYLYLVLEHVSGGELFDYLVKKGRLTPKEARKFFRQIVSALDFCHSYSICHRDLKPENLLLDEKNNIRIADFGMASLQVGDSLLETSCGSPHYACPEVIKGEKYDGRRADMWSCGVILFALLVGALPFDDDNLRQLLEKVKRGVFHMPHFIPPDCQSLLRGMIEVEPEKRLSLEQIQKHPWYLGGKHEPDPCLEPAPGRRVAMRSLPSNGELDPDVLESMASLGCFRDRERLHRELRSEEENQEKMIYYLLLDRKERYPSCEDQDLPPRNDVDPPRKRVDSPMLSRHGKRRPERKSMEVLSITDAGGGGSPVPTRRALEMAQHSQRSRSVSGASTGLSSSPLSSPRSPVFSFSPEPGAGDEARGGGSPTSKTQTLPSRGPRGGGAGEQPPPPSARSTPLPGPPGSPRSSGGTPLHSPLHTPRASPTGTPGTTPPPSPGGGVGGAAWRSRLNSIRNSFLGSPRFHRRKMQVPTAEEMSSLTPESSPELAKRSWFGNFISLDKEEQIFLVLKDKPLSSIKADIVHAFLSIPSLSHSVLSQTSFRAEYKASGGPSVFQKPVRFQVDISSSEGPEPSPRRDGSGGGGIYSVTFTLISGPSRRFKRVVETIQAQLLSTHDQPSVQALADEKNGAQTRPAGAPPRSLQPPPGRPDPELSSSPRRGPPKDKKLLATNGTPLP

[7] = molecular target: Insulin receptor-related protein (Homo sapiens) (UniProt P14616); assay: INSRR Invitrogen selectivity data (BI)
[8] = molecular target: Tyrosine-protein kinase Fgr (Homo sapiens) (UniProt P09769); assay: FGR Invitrogen selectivity data (BI)
[9] = molecular target: T3, Serine/threonine-protein kinase TAO2 (Homo sapiens) (UniProt Q9UL54); assay: TAOK2 Invitrogen selectivity data (BI)
T3 sequence (whole entry): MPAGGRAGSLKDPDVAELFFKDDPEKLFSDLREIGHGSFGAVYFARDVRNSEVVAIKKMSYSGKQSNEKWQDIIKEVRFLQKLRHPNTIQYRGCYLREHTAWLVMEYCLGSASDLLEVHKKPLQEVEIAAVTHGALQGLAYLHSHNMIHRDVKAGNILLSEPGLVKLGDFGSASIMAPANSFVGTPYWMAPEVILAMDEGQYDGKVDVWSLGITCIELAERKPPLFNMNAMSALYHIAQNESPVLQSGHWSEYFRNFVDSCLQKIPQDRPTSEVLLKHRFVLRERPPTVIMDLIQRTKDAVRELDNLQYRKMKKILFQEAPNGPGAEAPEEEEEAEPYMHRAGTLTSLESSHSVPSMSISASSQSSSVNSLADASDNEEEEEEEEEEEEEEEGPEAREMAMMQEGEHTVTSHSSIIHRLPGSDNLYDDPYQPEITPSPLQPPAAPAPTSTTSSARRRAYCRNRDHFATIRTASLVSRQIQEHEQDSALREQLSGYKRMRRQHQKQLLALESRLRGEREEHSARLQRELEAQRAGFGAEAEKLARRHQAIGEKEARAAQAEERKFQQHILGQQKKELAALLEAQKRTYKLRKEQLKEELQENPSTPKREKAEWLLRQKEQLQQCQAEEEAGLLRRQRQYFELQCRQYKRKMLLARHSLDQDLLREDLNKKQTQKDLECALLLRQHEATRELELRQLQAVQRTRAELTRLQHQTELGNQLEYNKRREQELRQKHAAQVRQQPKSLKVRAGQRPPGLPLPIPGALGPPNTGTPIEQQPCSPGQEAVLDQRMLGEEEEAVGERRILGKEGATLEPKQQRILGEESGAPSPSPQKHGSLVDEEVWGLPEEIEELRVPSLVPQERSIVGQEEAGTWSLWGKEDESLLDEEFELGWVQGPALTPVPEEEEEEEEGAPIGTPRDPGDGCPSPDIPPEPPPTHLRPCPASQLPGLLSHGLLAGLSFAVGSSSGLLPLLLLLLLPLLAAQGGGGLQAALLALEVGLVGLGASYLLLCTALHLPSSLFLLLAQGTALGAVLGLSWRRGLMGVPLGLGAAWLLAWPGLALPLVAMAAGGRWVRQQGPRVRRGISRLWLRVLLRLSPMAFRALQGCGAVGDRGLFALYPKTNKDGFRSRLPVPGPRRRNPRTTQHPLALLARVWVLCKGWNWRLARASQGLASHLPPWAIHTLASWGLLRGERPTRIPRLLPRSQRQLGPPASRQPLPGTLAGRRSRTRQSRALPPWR

[10] = molecular target: Rho-associated protein kinase 2 (Homo sapiens) (UniProt O75116); assay: ROCK2 Invitrogen selectivity data (BI)

Measured: residual activity

Chain of Calcium/calmodulin-dependent protein kinase type II subunit alpha (Homo sapiens) (Q9UQM7 whole entry): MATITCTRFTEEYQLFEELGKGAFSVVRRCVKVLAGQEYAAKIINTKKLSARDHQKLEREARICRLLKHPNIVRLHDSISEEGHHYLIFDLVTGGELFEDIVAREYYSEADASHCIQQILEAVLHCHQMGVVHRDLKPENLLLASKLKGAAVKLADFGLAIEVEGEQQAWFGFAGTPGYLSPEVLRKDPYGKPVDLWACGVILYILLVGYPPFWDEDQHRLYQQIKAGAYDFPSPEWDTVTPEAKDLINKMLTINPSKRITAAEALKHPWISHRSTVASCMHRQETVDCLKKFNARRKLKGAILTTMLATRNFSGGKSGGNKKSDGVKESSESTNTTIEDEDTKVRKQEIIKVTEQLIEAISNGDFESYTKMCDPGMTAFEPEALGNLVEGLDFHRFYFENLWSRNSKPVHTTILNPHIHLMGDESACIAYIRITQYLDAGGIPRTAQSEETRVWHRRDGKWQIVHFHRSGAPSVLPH
Chain of Tyrosine-protein kinase Fgr (Homo sapiens) (P09769 2-529 limits assumed): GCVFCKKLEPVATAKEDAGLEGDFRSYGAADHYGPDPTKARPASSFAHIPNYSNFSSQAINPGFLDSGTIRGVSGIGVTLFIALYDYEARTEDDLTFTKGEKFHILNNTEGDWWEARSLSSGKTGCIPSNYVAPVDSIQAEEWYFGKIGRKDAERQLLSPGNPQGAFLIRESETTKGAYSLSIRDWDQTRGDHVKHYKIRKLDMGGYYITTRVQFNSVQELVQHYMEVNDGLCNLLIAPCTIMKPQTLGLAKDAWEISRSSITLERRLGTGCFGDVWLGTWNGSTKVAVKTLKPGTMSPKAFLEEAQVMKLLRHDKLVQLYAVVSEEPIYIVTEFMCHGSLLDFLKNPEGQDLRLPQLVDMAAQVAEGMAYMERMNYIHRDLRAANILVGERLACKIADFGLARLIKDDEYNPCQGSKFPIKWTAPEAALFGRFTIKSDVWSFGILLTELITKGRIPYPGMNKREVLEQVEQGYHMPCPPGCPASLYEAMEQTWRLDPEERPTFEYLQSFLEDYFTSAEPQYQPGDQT
Chain of Calcium/calmodulin-dependent protein kinase kinase 2 (Homo sapiens) (Q96RR4 2-588 limits assumed): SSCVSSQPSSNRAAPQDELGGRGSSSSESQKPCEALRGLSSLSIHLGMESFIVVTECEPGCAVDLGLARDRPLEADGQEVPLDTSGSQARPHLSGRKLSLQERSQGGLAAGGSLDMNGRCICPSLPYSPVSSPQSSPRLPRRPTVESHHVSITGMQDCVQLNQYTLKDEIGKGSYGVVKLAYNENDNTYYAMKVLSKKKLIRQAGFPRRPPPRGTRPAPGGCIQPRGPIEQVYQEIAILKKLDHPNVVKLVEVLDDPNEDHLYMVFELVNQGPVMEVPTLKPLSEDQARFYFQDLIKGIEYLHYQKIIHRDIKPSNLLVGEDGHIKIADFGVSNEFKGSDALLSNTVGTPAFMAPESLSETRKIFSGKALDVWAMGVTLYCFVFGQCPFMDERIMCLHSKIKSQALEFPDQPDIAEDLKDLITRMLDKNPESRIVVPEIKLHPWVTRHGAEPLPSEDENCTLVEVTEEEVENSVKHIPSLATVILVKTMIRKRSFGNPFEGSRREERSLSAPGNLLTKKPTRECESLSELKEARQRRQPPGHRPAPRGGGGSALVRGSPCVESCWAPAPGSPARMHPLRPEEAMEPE
Chain of Dual specificity protein kinase CLK3 (Homo sapiens) (P49761 whole entry, looked up): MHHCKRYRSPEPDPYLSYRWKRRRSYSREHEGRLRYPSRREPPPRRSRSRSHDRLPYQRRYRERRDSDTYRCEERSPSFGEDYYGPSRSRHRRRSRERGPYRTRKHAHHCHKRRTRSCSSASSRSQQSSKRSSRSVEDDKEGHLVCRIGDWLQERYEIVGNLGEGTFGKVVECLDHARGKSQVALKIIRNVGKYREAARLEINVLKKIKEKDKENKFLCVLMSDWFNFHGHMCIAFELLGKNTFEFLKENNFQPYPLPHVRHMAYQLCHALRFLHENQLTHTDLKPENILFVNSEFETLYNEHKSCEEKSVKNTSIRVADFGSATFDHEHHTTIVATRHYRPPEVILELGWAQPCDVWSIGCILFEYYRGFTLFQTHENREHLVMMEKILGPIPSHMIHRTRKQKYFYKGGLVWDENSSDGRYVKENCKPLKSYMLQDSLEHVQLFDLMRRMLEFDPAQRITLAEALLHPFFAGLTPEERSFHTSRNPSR
Chain of Insulin receptor-related protein (Homo sapiens) (P14616 27-742 limits assumed): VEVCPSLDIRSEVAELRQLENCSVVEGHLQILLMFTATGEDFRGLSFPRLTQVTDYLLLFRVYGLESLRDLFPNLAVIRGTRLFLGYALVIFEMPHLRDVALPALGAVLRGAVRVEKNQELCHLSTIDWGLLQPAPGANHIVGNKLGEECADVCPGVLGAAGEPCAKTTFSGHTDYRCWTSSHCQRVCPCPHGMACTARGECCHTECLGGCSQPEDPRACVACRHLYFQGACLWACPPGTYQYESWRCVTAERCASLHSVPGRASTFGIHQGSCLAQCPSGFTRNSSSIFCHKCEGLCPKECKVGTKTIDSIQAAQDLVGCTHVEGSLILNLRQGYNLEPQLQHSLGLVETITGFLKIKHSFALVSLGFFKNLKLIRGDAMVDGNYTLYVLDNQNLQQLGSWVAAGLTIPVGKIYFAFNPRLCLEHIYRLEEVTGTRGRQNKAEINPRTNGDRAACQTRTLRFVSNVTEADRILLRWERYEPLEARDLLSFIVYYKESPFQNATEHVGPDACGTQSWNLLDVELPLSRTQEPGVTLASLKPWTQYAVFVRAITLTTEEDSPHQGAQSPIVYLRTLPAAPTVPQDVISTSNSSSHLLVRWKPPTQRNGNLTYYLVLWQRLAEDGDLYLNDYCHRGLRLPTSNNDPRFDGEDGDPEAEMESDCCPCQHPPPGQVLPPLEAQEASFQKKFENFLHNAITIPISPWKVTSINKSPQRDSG
Chain of Insulin receptor-related protein (Homo sapiens) (P14616 747-1297 limits assumed): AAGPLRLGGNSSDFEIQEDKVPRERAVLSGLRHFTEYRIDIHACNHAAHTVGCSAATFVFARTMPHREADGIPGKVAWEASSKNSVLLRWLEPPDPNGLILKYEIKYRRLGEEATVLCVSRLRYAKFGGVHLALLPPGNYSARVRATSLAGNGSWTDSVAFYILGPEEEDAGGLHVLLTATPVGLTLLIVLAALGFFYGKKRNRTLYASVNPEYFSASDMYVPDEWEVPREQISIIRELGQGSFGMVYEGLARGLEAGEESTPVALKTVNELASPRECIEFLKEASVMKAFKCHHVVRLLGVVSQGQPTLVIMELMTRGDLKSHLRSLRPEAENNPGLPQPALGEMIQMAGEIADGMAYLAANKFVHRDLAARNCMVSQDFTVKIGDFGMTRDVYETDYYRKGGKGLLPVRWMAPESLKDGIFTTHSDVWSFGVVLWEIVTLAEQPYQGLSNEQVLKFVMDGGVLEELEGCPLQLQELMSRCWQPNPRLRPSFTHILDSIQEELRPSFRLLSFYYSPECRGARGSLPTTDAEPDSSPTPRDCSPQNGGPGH
Chain of Rho-associated protein kinase 2 (Homo sapiens) (O75116 whole entry, looked up): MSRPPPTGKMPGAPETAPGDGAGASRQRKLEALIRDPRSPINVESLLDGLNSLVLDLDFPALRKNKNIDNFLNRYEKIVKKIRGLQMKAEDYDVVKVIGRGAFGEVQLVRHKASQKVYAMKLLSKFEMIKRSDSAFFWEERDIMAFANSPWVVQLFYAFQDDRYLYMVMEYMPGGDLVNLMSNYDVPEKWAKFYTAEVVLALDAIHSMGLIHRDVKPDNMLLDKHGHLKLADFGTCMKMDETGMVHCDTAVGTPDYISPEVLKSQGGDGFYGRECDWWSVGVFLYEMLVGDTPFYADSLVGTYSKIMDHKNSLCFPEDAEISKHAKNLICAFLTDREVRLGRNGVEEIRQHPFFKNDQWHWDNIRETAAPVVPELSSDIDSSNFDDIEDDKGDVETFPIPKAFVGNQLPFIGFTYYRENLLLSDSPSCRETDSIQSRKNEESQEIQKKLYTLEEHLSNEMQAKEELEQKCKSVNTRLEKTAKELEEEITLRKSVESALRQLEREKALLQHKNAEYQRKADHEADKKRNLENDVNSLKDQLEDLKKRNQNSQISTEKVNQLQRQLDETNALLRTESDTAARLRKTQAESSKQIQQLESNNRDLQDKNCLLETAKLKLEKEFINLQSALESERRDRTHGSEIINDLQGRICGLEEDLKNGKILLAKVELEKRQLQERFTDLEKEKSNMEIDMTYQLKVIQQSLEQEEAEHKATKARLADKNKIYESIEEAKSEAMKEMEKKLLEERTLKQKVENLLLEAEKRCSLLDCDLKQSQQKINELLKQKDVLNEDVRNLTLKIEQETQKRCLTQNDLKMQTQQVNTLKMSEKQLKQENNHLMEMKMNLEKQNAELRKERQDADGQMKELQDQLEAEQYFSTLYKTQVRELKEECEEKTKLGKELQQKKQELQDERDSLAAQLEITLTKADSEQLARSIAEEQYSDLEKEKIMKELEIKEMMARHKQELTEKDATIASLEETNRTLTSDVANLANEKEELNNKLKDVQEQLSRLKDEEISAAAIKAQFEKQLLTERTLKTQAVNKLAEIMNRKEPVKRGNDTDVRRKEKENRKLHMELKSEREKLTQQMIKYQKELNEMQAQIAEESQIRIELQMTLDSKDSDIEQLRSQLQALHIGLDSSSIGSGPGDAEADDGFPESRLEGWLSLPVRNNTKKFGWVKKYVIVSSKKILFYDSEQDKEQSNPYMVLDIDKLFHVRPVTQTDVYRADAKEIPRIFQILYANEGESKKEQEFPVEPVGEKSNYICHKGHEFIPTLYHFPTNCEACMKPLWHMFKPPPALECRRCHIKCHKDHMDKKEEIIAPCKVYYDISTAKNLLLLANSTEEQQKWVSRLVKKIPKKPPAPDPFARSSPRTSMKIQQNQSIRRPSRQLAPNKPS

CN(C)C(=O)Cn1cc(-c2nc([C@@](C)(c3ccc(-c4cnc(N)nc4)cc3)C3CC3)no2)cn1 [BI 665915]
inactive: [1] 95.5% | [2] 103% | [3] 88% | [4] 103% | [5] 98% | [6] 90.5% | [7] 96% | [8] 90.5% | [9] 100% | [10] 102%

— ChEMBL document CHEMBL4507276 (2021)
